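In this assay, cells in 96-well plates receive the compound at five concentrations for 48 hours. Endpoints are linearly interpolated between the surrounding concentrations. GI50 = concentration required for 50% inhibition of growth.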 Calls of active or inactive are those of the source. Cut-off read from the data, not from the text of the source: active = GI50 up to about 1.1 µM and inactive = higher.
Legend:
Test in all cases: NCI tumour cell line growth inhibition, 48 h
ACHN = system: ACHN
COLO 205 = system: COLO 205
HOP-92 = system: HOP-92
Hs-578T = system: Hs-578T
IGROV-1 = system: IGROV-1
M14 = system: M14
MDA-MB-231 = system: MDA-MB-231
MOLT-4 = system: MOLT-4
NCI-H23 = system: NCI-H23
NCI-H460 = system: NCI-H460
NCI/ADR-RES = system: NCI/ADR-RES
SF-295 = system: SF-295
SF-539 = system: SF-539
SN12C = system: SN12C
SR = system: SR
SW-620 = system: SW-620
TK-10 = system: TK-10
U-251 = system: U-251
OVCAR-4 = system: OVCAR-4

| SMILES | GI50 (ACHN) | GI50 (COLO 205) | GI50 (HOP-92) | GI50 (Hs-578T) | GI50 (IGROV-1) | GI50 (M14) | GI50 (MDA-MB-231) | GI50 (MOLT-4) | GI50 (NCI-H23) | GI50 (NCI-H460) | GI50 (NCI/ADR-RES) | GI50 (SF-295) | GI50 (SF-539) | GI50 (SN12C) | GI50 (SR) | GI50 (SW-620) | GI50 (TK-10) | GI50 (U-251) | GI50 (OVCAR-4) |
| --- | --- | --- | --- | --- | --- | --- | --- | --- | --- | --- | --- | --- | --- | --- | --- | --- | --- | --- | --- |
| CN(C)Cc1cc(/N=N/c2ccccc2)ccc1O | 29 µM (inactive) | 53 µM (inactive) | 23.2 µM (inactive) | 33 µM (inactive) | 32.5 µM (inactive) | 38.9 µM (inactive) | 32.9 µM (inactive) | 33.9 µM (inactive) | 98.9 µM (inactive) | 40.5 µM (inactive) | 24.8 µM (inactive) | > 100 µM (inactive) | 67.3 µM (inactive) | > 100 µM (inactive) | 59.2 µM (inactive) | 57.7 µM (inactive) | 34.6 µM (inactive) | > 100 µM (inactive) |  |
| CCCCCCCCCCCC(=O)OCC(O)CO (stereo not given) [GLYCEROL MONOLAURATE] | > 100 µM (inactive) | > 100 µM (inactive) | > 100 µM (inactive) | > 100 µM (inactive) |  | 69.7 µM (inactive) | > 100 µM (inactive) | 37.1 µM (inactive) | 67.3 µM (inactive) | 80.5 µM (inactive) | > 100 µM (inactive) | > 100 µM (inactive) | > 100 µM (inactive) | > 100 µM (inactive) |  | > 100 µM (inactive) | > 100 µM (inactive) | 71.3 µM (inactive) | > 100 µM (inactive) |
| Cn1c(=O)c2c(ncn2CCSS(=O)(=O)O)n(C)c1=O | > 100 µM (inactive) | > 100 µM (inactive) | > 100 µM (inactive) | 74.5 µM (inactive) | > 100 µM (inactive) | 72.3 µM (inactive) | 45.9 µM (inactive) |  | > 100 µM (inactive) | 66.4 µM (inactive) | > 100 µM (inactive) | > 100 µM (inactive) | > 100 µM (inactive) | > 100 µM (inactive) |  | > 100 µM (inactive) | > 100 µM (inactive) | 45.8 µM (inactive) | > 100 µM (inactive) |
| COC1=CC(=O)C(C2(OC(C)C)OC(=O)C(Cl)=C2Cl)=CC1=O (stereo not given) | 51.4 µM (inactive) | > 100 µM (inactive) | > 100 µM (inactive) | > 100 µM (inactive) |  | > 100 µM (inactive) | > 100 µM (inactive) |  | > 100 µM (inactive) | > 100 µM (inactive) | > 100 µM (inactive) | > 100 µM (inactive) | > 100 µM (inactive) | > 100 µM (inactive) | 0.0115 µM (active) | > 100 µM (inactive) | > 100 µM (inactive) |  |  |
| CO[P@]1(=O)O[C@@H](c2ccccc2)[C@H](O)[C@]1(O)c1ccccc1 | > 100 µM (inactive) | > 100 µM (inactive) | > 100 µM (inactive) | > 100 µM (inactive) | > 100 µM (inactive) | > 100 µM (inactive) | > 100 µM (inactive) |  | > 100 µM (inactive) | > 100 µM (inactive) | > 100 µM (inactive) | > 100 µM (inactive) | > 100 µM (inactive) | > 100 µM (inactive) |  | > 100 µM (inactive) | > 100 µM (inactive) | > 100 µM (inactive) | > 100 µM (inactive) |
| CCCCCCCCCCCCCCN [TETRADECYLAMINE] | > 100 µM (inactive) | > 100 µM (inactive) | > 100 µM (inactive) | > 100 µM (inactive) | > 100 µM (inactive) |  | > 100 µM (inactive) | > 100 µM (inactive) | > 100 µM (inactive) | > 100 µM (inactive) | > 100 µM (inactive) | > 100 µM (inactive) |  | > 100 µM (inactive) |  | > 100 µM (inactive) | > 100 µM (inactive) | > 100 µM (inactive) | > 100 µM (inactive) |
| Nc1nc(-c2ccccc2)cc(-c2ccc(F)cc2)c1-c1ccc(Cl)cc1 | > 100 µM (inactive) | > 100 µM (inactive) |  | 73.3 µM (inactive) | > 100 µM (inactive) | > 100 µM (inactive) | > 100 µM (inactive) | 5.57 µM (inactive) | > 100 µM (inactive) | 31.3 µM (inactive) | > 100 µM (inactive) | 41.6 µM (inactive) |  | > 100 µM (inactive) | 22.2 µM (inactive) | > 100 µM (inactive) | > 100 µM (inactive) | > 100 µM (inactive) | 88.9 µM (inactive) |
| Nc1ccc2nc3n(c2c1)C(c1c(F)cccc1F)SC3 (stereo not given) | > 100 µM (inactive) | > 100 µM (inactive) |  | > 100 µM (inactive) | > 100 µM (inactive) | > 100 µM (inactive) | > 100 µM (inactive) | 38.1 µM (inactive) | > 100 µM (inactive) | > 100 µM (inactive) | > 100 µM (inactive) | 98.9 µM (inactive) | > 100 µM (inactive) | > 100 µM (inactive) | > 100 µM (inactive) | > 100 µM (inactive) | > 100 µM (inactive) | > 100 µM (inactive) | > 100 µM (inactive) |

— ChEMBL document CHEMBL1201862, “PubChem BioAssay data set” (2004)
